Assay results taken from PubChem BioAssay (NCI).
Several values for one entry are separate records, joined by “and”; a condition that tells them apart may be missing. Identical values can stand only once.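 Each compound was tested at five concentrations against cells in 96-well plates for 48 hours. GI50 is the concentration that inhibits growth by half. TGI: concentration producing complete growth inhibition.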 *1 amine or outer side, *2 acyl side, *3 side chain or, on linkers, in order; H or OH if unused. Where a SMILES comes first, the peptide text is derived from it. Bridges are numbered along the chain shown (N, C = ends). [ ]: non-standard residue; d: D form. ξ: configuration not given here. X4 = CCC(C)C(N[*:1])C(O)CC(=O)O[C@H](C(=O)C(C)C(=O)[*:2])C(C)C; NMeY = CN[C@@H](Cc1ccc(O)cc1)C(=O)O; X9 = O=C([C@@H]1CC(O)CN1[*:1])[*:2]; ξNMeL = CNC(CC(C)C)C(=O)O; ξT = CC(O)C(N)C(=O)O

Assays:
Test in all cases: inhibition of tumour cell growth, NCI panel, 48 h
KM12 colon = test system: KM12 colon
COLO 205 colon = test system: COLO 205 colon
MOLT-4 leukemia = test system: MOLT-4 leukemia
SF-268 CNS = test system: SF-268 CNS
RXF 393 renal = test system: RXF 393 renal
NCI-H23 lung = test system: NCI-H23 lung
RPMI-8226 leukemia = test system: RPMI-8226 leukemia
A498 renal = test system: A498 renal
EKVX NSCLC = test system: EKVX NSCLC
LOX IMVI melanoma = test system: LOX IMVI melanoma

SMILES	TGI (KM12 colon)	TGI (COLO 205 colon)	TGI (MOLT-4 leukemia)	TGI (SF-268 CNS)	TGI (RXF 393 renal)	TGI (NCI-H23 lung)	TGI (RPMI-8226 leukemia)	TGI (A498 renal)	TGI (EKVX NSCLC)	TGI (LOX IMVI melanoma)	GI50 (KM12 colon)	GI50 (COLO 205 colon)	GI50 (MOLT-4 leukemia)	GI50 (SF-268 CNS)	GI50 (RXF 393 renal)	GI50 (NCI-H23 lung)	GI50 (RPMI-8226 leukemia)	GI50 (A498 renal)	GI50 (EKVX NSCLC)	GI50 (LOX IMVI melanoma)
N#CCCc1nc2ccc(Br)cc2c(=O)n1-c1ccc(O)c([N+](=O)[O-])c1	34.5 µM	47.9 µM	54.3 µM	63.1 µM	32.4 µM	42 µM	40 µM	> 100 µM	74.3 µM	35.5 µM	–	–	–	–	–	–	–	–	–	–
O=C(Nc1ccc(C(F)(F)F)cc1[N+](=O)[O-])C(=O)C(C(=O)c1ccc2ccccc2c1)C1OC(=O)c2ccccc21 (centres undefined)	24.4 µM	32.7 µM	10.6 µM	52 µM	10.1 µM	12.1 µM	> 67.3 µM	19.7 µM	21.2 µM	24.1 µM	–	–	–	–	–	–	–	–	–	–
COc1cc2c(/C=C3/C(=O)Nc4ccccc43)c(Cl)n(Cc3ccccc3)c2cc1C	> 100 µM	> 100 µM	> 100 µM	> 100 µM	> 100 µM	> 100 µM	> 100 µM	> 100 µM	> 100 µM	> 100 µM	> 100 µM	31.8 µM	6.05 µM	> 100 µM	> 100 µM	> 100 µM	21.1 µM	> 100 µM	> 100 µM	> 100 µM
CCCOc1ccc(/C=C\c2cc(OC)c(OC)c(OC)c2)cc1	89.5 µM	> 100 µM	–	> 100 µM	> 100 µM	–	> 100 µM	> 100 µM	> 100 µM	> 100 µM	–	–	–	–	–	–	–	–	–	–
FC(F)(F)c1ccc2c(c1)N(CCCN1CCN(C3CC3)CC1)c1ccccc1S2	21 µM	21.5 µM	23.7 µM	26.8 µM	24.1 µM	23.1 µM	25.8 µM	23.3 µM	22.2 µM	28.3 µM	7.68 µM	9.45 µM	6.13 µM	12.7 µM	11.5 µM	7.42 µM	6.18 µM	11 µM	6.09 µM	13.7 µM
O=C(Oc1ccccc1)c1cc(O)c(O)c(O)c1	> 100 µM	> 100 µM	26.2 µM	> 100 µM	> 100 µM	59.2 µM	> 100 µM	76.1 µM	> 100 µM	> 100 µM	11.5 µM	18.9 µM	2.23 µM	8.15 µM	25.6 µM	11.7 µM	11.4 µM	5 µM	8.95 µM	8.97 µM
COc1ccc2c(c1)[nH]c(=O)c1c3cccnc3cn21	17.5 µM	0.146 µM	> 100 µM	42.7 µM	0.055 µM	35.3 µM	32.4 µM	4.53 µM	> 94.5 µM	14 µM	0.0377 µM	0.0359 µM	0.0675 µM	0.0686 µM	0.0195 µM	0.131 µM	0.0596 µM	0.0335 µM	1.12 µM	0.0679 µM
CNC(=O)c1cc(Oc2ccc3nc(NC(=O)Nc4ccc(Cl)c(Cl)c4)sc3c2)ccn1	> 100 µM	> 100 µM	> 100 µM	4.21 µM	3.65 µM	> 100 µM	> 100 µM	6.64 µM	> 100 µM	3.52 µM	3 µM	4.25 µM	> 100 µM	1.98 µM	1.84 µM	2.78 µM	3.66 µM	2.93 µM	3.3 µM	1.82 µM
COc1ccc(C2=NNC(c3ccc(-c4ccc(OC)cc4[N+](=O)[O-])o3)C2)cc1 (centres undefined)	> 100 µM	> 100 µM	> 100 µM	53.2 µM	54.1 µM	> 100 µM	> 100 µM	> 100 µM	> 100 µM	> 100 µM	27.4 µM	> 100 µM	31 µM	20.3 µM	20.3 µM	33 µM	36.8 µM	31.6 µM	18.4 µM	41.9 µM
CCCOc1ccc(/C=C/c2cc(OC)c(OC)c(OC)c2)cc1	> 25.4 µM	2.42 µM	13.2 µM	> 100 µM	0.904 µM	0.706 µM	28.4 µM	> 22.6 µM	> 100 µM	> 50.5 µM	–	–	–	–	–	–	–	–	–	–
CCC(C)C1NC(=O)C(NC(=O)C(CC(C)C)N(C)C(=O)[C@@H]2CC(O)CN2)C(C)OC(=O)[C@H](Cc2ccc(OC)cc2)N(C)C(=O)[C@@H]2CCCN2C(=O)[C@H](CC(C)C)NC(=O)C(C)C(=O)[C@H](C(C)C)OC(=O)CC1O (some centres undefined) (H-[X9][ξNMeL][ξT][X4]LP[NMeY](Me); ester 3-C)	0.105 µM	0.0156 µM	0.0426 µM and 0.0387 µM	0.172 µM and 0.252 µM	0.0965 µM and 0.0648 µM	–	–	0.628 µM and 2.45 µM	0.266 µM	0.0294 µM and 0.101 µM	–	–	–	–	–	–	0.0103 µM	0.283 µM	–	–
COc1cc2c(cc1OCCCCCOc1cc(-c3ccc(F)cc3)nc(C)n1)N=C[C@@H]1CCCN1C2=O	> 73.6 µM	7.64 µM	> 45 µM	> 65.2 µM	> 54.3 µM	> 100 µM	> 24 µM	> 100 µM	> 81 µM	31 µM	> 48.3 µM	4.32 µM	–	> 32.5 µM	> 32.9 µM	> 100 µM	–	> 100 µM	> 50.1 µM	11.1 µM
CCOC(=O)C1CCC/C1=N\N=C(N)N (centres undefined) (tested in a mixture with another compound)	> 100 µM	> 100 µM	> 100 µM	> 100 µM	> 100 µM	> 100 µM	> 100 µM	> 100 µM	> 100 µM	> 100 µM	–	–	–	–	–	–	–	–	–	–
CCCCCCN1C(=O)/C(=c2\sc3n(c2=O)C2C(NN=3)N(CC)C(=O)N2CC)c2ccccc21 (centres undefined)	> 50 µM	38.3 µM	> 50 µM	–	3.98 µM	> 50 µM	> 50 µM	2.37 µM	> 50 µM	> 50 µM	1.46 µM	2.21 µM	3.96 µM	–	1.2 µM	2.05 µM	2.57 µM	0.706 µM	2.84 µM	1.53 µM
